{"source": "patent US5405857A", "about": "“3-substituted 1,2,3,4,-oxatriazole-5-imine compounds, a process for the preparation thereof and a pharmaceutical preparation containing said compounds” (A/S GEA Farmaceutisk Fabrik, priority 1991, dated 1995)", "key": {"blood platelets": {"tested_on": "blood platelets", "assay": "Inhibition of blood platelet aggregation (aggregometer, ADP)", "assay_type": "cell-based, human (healthy testees)", "settings": "Platelet, 0.05 h; human PRP, ADP 2 to 4 μM, 3 min incubation, 37° C.; read-out: IC50 (Inhibition of blood platelet aggregation)", "how_it_was_run": "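Citrated human PRP (0.38% sodium citrate final; donors drug-free ≥8 days) preincubated 3 min with test substance at 37 °C under stirring, then ADP 2 to 4 μM added; aggregation followed by light transmission against PPP. IC50 from linear regression of % inhibition vs log concentration.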"}, "PAI-1": {"tested_on": "PAI-1", "assay": "Inhibition of plasminogen activator inhibitor (PAI-1) from blood platelets (fibrinolytic activity)", "assay_type": "cell-based, human", "settings": "50 μM, 60 minutes", "description": "Compounds according to the invention were tested for their inhibition of plasminogen activator inhibitor (PAI). An established thrombus comprises aggregated platelets cohered by fibrin. The organism has a fibrinolyric system for maintaining normal physiological conditions. Endogenous plasminogen is activated to plasmin (fibrinolysin, that is a proteolytic enzyme decomposing fibrin) by means of a tissue plasminogen activator (t-PA). The platelets include the enzyme PAI-1 inhibiting the activation of plasminogen to plasmin, and thus also the decomposition of fibrin.\nA general stimulation of the fibrinolytic system can cause serious hemostatic side effects (haemorrhages). A specific inhibition of PAI-1 induces an increased fibrinolysis in areas with many platelets, which is exactly the case in thrombi. As a result a thrombolytic effect is obtained.\nHuman PRP prepared by slight centrifugation as previously mentioned is used, but at a low temperature (4° C.). By incubation of PRP (1 ml in a plastic tube) during a slight shaking at 37° C. the PAI-1 activity is liberated, said PAI-1 activity being measured spectrophotometrically by means of a two-step procedure using commercial kits (Spectrolyse™/fibrin kit from BIOPOOL, Sweden).\nThe PAI-1 activity of the control PRP and PRP incubated with each of 6 compounds according to the invention and the reference substance sodium niroprusside (NNP) (50 μM of each for 60 minutes) appear from Table 6."}, "pre-contracted trachea": {"tested_on": "pre-contracted trachea", "assay": "Relaxation of pre-contracted isolated trachea", "design": "species or system guinea pig", "settings": "Cavia porcellus; carbamylcholine 0.3 μM, Krebs buffer, 37° C.", "description": "Compounds according to the invention were tested for their ability to relax a pre-contracted trachea. A contraction of the respiratory passages in combination with a swelling of the mucuos membrane therein presents a vital factor at asthmatic conditions. Relaxation or dilation of the contracted respiratory passages will improve the asthmatic condition.\nAn isolated trachea from a guinea pig is used. After preparation of a strip which has maintained the circular musculature, the organ is divided into two parts of equal size. The two tracheal strips are suspended in their respective organ bath and connected to a transducer recording the contraction and relaxation of the organ by means of a recorder. The two tracheal strips are continuously bathed in a Krebs buffer at 37° C., constantly bubbled with carbogen (95% O2 and 5% CO2). After an equilibration time of about 3 hours the organs are tested for their sensitivity (contractility) to carbamylcholin a bolus being added directly to the bath (0.3 μM). If the contraction is satisfactory, the organs are transferred to the Krebs buffer containing the same concentration of carbamylcholine. The organs are now constantly exposed to the carbamylcholine and slowly develop a permanent contraction (\"asthma\"). The test substances are in bolus form added directly to the organ bath. After maximum effect (relaxation) the substances are removed by washing out and the tracheal strip reverts to its permanent contraction state. […] An EC50 -value (that is the concentration relaxing the organ by 50% relative to the maximum relaxation) is calculated for each test substance by means of a linear regression analysis (log concentration (μM) as a constant ad abscissa and % relaxation as variable ad ordinate). Sodium nitroprusside (NNP) and SIN-1 are used as reference substances."}, "[1]": {"tested_on": "polymorph nuclear leukocytes (PMNs), c-GMP", "assay": "Stimulation of c-GMP content in PMNs", "assay_type": "cell-based, human", "settings": "37° C., 10 minutes", "description": "Compounds according to the invention were tested for their ability to increase the content of cyclic guanosine monophosphate (c-GMP), to inhibit the synthesis of the leukotriene B4 (LTB4), and to inhibit the chemotactical movement of polymorph nuclear leukocytes (PMN). The polymorph nuclear leukocytes play a vital part in the cellular part of the inflammation process. At diseases, such as asthma, the mucuos membrane of the respiratory passages is swollen as a result of an inflammation with a significant infiltration of polymorph nuclear leukocytes (PMN's) in particular. Particularly effective substances for the treatment of asthma are such which in addition to relaxing the musculature in the respiratory passages also have an anti-inflammatory effect on the cellular phase of the inflammatory process, that is inhibiting the leukocyte function.\nIsolated human PMNs are incubated at 37° C. for 10 minutes, whereafter the content of cyclic guanosine monophosphate (c-GMP) is measured. Further, the synthesis of the LTB4 is determined after stimulation with Ca-ionophore (A23187) and the chemotaxis (controlled movement) towards FMLP (a substance attracting the polymorph nuclear leukocytes, PMNs) is determined.\nThree compounds according to the invention and the reference substance SIN-1 were tested for their ability to stimulate the content of cyclic guanosine monophosphate (c-GMP)."}}}
{"compound": "COc1ccc(Cl)cc1-[n+]1noc([NH-])n1", "note": "[Example 20]", "values": [{"measurement": "IC50", "setting": "blood platelets", "result": 0.18, "unit": "µM"}, {"measurement": "% Inhibition of PAI-1 activity", "setting": "PAI-1; compared to control", "result": 35, "unit": "%"}, {"measurement": "PAI-1 activity", "setting": "PAI-1; human PRP, control 3.24", "result": 2.09, "unit": "U/10^8 platelets"}, {"measurement": "EC50", "setting": "pre-contracted trachea", "result": 2.7, "unit": "µM"}, {"measurement": "c-GMP in PMNs", "setting": "[1]; 1 μM", "result": 175, "unit": "fmole/10^6 cells"}, {"measurement": "c-GMP in PMNs", "setting": "[1]; 10 μM", "result": 492, "unit": "fmole/10^6 cells"}, {"measurement": "c-GMP in PMNs", "setting": "[1]; 100 μM", "result": 866, "unit": "fmole/10^6 cells"}]}
